Measured values as given in ChEMBL document CHEMBL1201862, “PubChem BioAssay data set” (2004).
Active and inactive are the calls of the source.

Experiments:
[1] = cytotoxicity toward NIH3T3 fibroblasts, dose response, counter-screen, cell-based, ATP luminescence, mouse fibroblasts (AID 2010); format: functional;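 note: cells exposed to compound for about 90 hours before reading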
[2] = inhibitors of intracellular T. cruzi replication, confirmation, NIH3T3 host cells, beta-gal luminescence (AID 2044); format: functional, cell-based;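 note: intracellular parasites grown in NIH/3T3 mouse fibroblasts as host cells; luminescent beta-galactosidase reporter signal from transgenic T. cruzi replicating inside host cells; inhibitors lower the luminescence signal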
[3] = growth suppression of PTEN-null colon cells, dose response, cell-based, HCT116 PTEN knockout (AID 1047); format: functional;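 note: HCT116 colon tumor cells with PTEN knocked out; cells exposed to compound for 60 hours before readout; potency for loss of cell viability measured by luminescence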
[4] = growth suppression of beta-catenin-knockout colon cells, dose response, cell-based, HCT116, human colon tumor (AID 1045); format: functional;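 note: HCT116 colon tumor cells with beta catenin knocked out; cells exposed to compound for 60 hours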
Coagulation factor XII = molecular target: T1, Coagulation factor XII (Homo sapiens, UniProt P00748); format: functional;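 note: activated factor XIIa alpha cleaving a fluorogenic AMC peptide substrate; inhibitor potency from loss of enzyme activity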
T1 sequence (P00748 whole entry): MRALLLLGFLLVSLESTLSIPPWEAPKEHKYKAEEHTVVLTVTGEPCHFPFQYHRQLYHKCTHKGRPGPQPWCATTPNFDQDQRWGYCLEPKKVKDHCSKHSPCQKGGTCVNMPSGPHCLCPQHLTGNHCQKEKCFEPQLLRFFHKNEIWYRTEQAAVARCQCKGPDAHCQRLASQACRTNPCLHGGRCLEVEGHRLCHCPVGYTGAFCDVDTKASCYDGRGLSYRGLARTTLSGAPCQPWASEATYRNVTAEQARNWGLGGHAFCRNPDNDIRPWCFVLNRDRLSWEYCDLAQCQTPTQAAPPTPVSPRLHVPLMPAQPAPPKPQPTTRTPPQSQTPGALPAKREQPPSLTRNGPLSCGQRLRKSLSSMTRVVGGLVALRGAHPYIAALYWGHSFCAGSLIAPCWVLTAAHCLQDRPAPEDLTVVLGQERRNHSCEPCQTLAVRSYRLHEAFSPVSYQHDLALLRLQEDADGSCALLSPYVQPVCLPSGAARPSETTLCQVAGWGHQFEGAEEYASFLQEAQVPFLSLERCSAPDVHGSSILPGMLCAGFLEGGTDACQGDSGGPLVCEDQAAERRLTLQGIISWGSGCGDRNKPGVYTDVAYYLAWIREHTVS

[5] = molecular target: T2, Short transient receptor potential channel 4 (Mus musculus, UniProt Q9QUQ5); test: mouse TRPC4 channel inhibitors, dose response, cell-based, HEK293 TRPC4/mu-opioid, Fluo-4 calcium (AID 434942); format: functional;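 note: potency of inhibitors blocking the TRPC4 calcium response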
T2 sequence (Q9QUQ5 whole entry): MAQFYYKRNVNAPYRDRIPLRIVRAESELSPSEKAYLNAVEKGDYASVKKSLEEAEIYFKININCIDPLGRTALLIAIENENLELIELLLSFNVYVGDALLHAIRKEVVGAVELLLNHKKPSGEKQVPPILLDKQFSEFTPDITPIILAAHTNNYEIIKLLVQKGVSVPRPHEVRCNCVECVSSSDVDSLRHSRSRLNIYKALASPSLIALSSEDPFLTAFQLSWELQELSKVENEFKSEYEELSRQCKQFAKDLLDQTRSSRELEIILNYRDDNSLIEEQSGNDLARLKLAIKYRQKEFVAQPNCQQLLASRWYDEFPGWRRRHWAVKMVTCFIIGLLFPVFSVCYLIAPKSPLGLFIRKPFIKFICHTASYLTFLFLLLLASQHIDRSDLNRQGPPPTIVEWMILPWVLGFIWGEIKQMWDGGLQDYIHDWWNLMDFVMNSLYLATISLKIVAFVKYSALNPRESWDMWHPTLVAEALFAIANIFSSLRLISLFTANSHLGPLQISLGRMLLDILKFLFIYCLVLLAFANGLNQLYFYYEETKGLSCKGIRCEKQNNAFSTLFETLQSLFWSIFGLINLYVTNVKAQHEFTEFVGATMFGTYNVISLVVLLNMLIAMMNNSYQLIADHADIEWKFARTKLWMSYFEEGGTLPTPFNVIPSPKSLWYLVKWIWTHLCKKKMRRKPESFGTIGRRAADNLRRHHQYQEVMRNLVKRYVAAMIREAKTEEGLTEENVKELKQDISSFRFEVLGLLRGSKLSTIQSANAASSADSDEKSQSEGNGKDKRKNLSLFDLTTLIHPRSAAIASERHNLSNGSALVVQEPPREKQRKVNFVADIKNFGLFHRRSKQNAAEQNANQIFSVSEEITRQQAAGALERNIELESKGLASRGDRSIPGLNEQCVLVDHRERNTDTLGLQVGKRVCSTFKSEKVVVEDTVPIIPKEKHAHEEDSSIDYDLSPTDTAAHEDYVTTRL

Large T antigen = Large T antigen (Simian virus 40, UniProt P03070); format: functional, Betapolyomavirus macacae;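 note: Confirmatory-stage PubChem screen for compounds that inhibit SV40 T antigen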
Chain of Large T antigen (P03070 whole entry): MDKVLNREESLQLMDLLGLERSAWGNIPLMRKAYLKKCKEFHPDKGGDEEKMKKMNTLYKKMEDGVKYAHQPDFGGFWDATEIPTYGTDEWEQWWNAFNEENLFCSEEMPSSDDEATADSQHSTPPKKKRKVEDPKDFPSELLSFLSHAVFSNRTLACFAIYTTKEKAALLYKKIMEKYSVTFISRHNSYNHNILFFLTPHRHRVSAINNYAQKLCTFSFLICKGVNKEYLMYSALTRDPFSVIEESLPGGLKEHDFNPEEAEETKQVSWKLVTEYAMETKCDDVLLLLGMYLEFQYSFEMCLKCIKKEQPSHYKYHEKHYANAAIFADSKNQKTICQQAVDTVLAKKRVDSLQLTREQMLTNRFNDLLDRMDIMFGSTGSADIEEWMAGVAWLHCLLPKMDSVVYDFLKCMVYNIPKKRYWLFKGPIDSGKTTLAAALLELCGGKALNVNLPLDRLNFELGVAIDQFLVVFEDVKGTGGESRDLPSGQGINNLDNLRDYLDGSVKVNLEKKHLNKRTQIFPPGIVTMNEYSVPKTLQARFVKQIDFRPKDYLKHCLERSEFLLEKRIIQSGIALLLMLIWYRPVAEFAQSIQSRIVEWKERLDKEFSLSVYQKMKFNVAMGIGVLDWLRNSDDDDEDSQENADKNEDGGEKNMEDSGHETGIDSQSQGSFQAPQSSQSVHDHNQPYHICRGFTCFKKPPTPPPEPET

[6] = molecular target: Luciferin 4-monooxygenase (Photinus pyralis, UniProt P08659); test: firefly luciferase enzyme inhibitors, dose response, biochemical, luminescence (AID 1891)
Chain of Luciferin 4-monooxygenase (P08659 whole entry): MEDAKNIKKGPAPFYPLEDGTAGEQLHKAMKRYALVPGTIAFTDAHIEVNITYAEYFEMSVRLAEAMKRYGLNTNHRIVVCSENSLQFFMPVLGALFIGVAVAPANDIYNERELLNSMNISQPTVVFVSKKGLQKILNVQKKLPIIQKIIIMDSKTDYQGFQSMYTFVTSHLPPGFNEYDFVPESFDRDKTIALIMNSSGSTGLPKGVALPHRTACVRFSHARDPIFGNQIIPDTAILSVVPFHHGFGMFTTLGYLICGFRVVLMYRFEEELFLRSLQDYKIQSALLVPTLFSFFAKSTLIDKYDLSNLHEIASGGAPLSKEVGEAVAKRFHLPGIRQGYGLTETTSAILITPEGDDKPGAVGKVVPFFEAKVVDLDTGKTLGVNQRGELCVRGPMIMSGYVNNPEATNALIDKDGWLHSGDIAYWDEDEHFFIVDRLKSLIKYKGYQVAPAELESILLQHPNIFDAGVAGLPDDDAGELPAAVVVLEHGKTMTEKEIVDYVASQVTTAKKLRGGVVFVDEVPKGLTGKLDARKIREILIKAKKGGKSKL

[7] = Luminescence Cell-Based Dose Confirmation HTS to Identify Inhibitors of Platelet Dense Granule Release. [Related pubchem assays: 1663 (Primary HTS), 1678 (Summary of Project)]; format: functional
INS1 = test: beta cell apoptosis inhibitors, cytokine rescue, dose response, luminescence, retest (AID 449756); format: functional, cell-based; conditions: Rattus norvegicus;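 note: cell death triggered by IL-1 beta plus TNF-alpha plus IFN-gamma mixture; protective hits raise ATP signal compared with cytokine alone wells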
Streptococcus = test: Group A Streptococcus viability loss, dose response, counter-screen for streptokinase expression inhibitor project, luminescence, BacTiterGlo (AID 1915); format: functional, organism-based;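 note: potency for reduction of bacterial viability or growth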
BJ [8] = test: cytotoxicity toward BJ-TERT-LT-ST fibroblasts, dose response, cell-based, RAS-independent, luminescence (AID 1935); format: functional; conditions: Homo sapiens;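 note: BJ fibroblasts immortalized with TERT plus LT and ST oncogenes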
BJ [9] = test: cells; format: functional, cell-based; conditions: Homo sapiens
[10] = cytotoxicity toward DRD oncogenic fibroblasts, dose response, cell-based, non-viral oncogenic, luminescence (AID 1934); format: functional; conditions: Homo sapiens
[11] = system: Streptococcus sp. 'group A'; test: growth inhibition of control SK(-) GAS strain, dose response, counter-screen for streptokinase expression inhibitor project, luminescence, kanamycin, BacTiterGlo, confirmation (AID 1900); format: functional, organism-based
BJ [12] = test: cytotoxicity toward BJ-TERT fibroblasts, dose response, cell-based, RAS-independent, luminescence (AID 1933); format: functional; conditions: Homo sapiens
[13] = Luminescence-based dose response cell-based high throughput screening assay for cytotoxic compounds using the IEC-6 intestinal epithelial cell line. [Related pubchem assays: 1858 (Summary AID.), 1825 (Counterscreen.), 1907 (Confirmation screen.)]; format: functional
[14] = cytotoxicity in HEK-293T cells, dose response, cytotoxicity control for TCR NF-kB inhibitor project, luminescence, T-cell screen hits (AID 489026); format: functional, cell-based;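 note: cells exposed to compound about 14 hours before the viability readout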
Nonstructural protein 1 = Nonstructural protein 1 (Influenza A virus, UniProt Q194T2); format: functional, Influenza A virus (A/California/07/2009(H1N1))
Chain of Nonstructural protein 1 (Q194T2 whole entry): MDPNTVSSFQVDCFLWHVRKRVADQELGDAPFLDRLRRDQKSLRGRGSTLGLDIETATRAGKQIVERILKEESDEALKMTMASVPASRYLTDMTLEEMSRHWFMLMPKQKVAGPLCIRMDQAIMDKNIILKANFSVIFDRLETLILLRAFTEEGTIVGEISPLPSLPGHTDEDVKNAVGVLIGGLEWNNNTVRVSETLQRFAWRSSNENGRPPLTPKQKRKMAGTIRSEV

[15] = THP-1 cell cytotoxicity, dose response, cytotoxicity control for Vif-APOBEC3G degradation inhibitor project, THP-1 cells (AID 1117359); format: functional; conditions: Human immunodeficiency virus 1, THP-1
[16] = molecular target: T3, Replicative DNA helicase DnaB (Mycobacterium tuberculosis, UniProt P9WMR3); test: DnaB intein splicing inhibitors, dose response, biochemical, cell-free fluorescence (AID 449749); format: functional
T3 sequence (P9WMR3 whole entry): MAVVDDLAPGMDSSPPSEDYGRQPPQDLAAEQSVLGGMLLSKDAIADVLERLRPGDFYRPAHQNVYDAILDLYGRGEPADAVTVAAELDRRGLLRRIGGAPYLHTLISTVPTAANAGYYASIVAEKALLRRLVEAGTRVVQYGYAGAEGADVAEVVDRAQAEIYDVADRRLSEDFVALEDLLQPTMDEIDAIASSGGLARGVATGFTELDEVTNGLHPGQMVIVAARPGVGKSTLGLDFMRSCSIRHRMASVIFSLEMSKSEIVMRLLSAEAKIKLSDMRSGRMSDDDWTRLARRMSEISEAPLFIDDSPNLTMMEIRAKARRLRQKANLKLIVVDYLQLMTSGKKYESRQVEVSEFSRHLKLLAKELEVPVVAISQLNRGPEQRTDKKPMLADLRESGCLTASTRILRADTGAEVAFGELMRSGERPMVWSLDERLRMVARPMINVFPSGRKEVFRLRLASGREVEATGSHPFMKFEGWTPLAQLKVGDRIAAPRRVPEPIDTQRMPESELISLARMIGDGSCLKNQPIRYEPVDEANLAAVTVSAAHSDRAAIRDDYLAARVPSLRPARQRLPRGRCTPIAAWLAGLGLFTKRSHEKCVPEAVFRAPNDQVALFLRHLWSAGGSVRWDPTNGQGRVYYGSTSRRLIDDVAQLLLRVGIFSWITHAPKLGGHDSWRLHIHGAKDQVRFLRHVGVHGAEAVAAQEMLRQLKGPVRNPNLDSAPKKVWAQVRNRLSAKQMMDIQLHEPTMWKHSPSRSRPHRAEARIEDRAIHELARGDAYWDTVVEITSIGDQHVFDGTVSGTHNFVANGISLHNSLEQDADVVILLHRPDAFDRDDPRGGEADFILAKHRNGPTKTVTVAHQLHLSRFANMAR

Protein RecA = molecular target: T4, Protein RecA (Mycobacterium tuberculosis, UniProt P9WHJ3); test: Fluorescence Cell-Free Homogeneous Dose Retest to Identify Inhibitors of RecA-Intein Splicing Activity. [Related pubchem assays (depositor defined):AID2097, AID2223, AID489010, AID492950]; format: functional
T4 sequence (P9WHJ3 whole entry): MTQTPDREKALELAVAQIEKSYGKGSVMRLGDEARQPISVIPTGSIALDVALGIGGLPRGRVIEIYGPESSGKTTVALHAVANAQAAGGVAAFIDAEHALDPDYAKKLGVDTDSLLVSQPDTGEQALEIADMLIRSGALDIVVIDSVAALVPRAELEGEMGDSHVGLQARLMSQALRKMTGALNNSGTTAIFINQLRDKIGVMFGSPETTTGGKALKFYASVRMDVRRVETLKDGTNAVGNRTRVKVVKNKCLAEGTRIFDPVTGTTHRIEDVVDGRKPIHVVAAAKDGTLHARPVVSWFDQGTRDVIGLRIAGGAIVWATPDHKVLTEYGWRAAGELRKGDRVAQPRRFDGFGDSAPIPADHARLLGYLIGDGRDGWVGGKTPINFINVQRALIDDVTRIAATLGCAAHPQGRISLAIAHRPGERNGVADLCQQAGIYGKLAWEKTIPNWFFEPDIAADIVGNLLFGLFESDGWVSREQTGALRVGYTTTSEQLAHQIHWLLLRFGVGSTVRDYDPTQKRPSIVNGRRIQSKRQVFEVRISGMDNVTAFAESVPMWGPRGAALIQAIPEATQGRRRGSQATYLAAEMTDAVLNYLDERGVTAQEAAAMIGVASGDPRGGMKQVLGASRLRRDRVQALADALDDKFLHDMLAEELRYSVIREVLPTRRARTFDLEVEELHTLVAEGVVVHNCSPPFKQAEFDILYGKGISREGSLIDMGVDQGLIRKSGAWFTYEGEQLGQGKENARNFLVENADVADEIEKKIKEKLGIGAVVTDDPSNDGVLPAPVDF

[17] = Vero E6 cell cytotoxicity, dose response, cytotoxicity control for non-replicating M. tuberculosis project, secondary assay (AID 492998); format: functional, VeroE6; conditions: Vero C1008
[18] = THP-1 cell cytotoxicity, dose response, cytotoxicity control for non-replicating M. tuberculosis project (AID 489025); format: functional
cells = format: functional

Structure (SMILES): OCCCCNCc1ccc(OCc2ccc(Cl)cc2Cl)cc1
- EC50 [1]: 17.3 µM (active)
- EC50 [2]: 1.68 µM (active)
- EC50 [3]: 10.9 µM (active)
- EC50 [4]: 9.83 µM (active)

Structure (SMILES): COC(=O)CSc1nnc(-c2sc3cc(OC)ccc3c2Cl)n1C
- IC50 (Coagulation factor XII): > 50 µM (inactive)
- EC50 [5]: 0.531 µM (active)

Structure (SMILES): COc1ccc(N2C(=O)C(Cl)=C(N3CCCC(C)C3)C2=O)cc1 (stereo not drawn)
- IC50 (Coagulation factor XII): > 50 µM (inactive)

Structure (SMILES): CCOc1cc(/C=N/NC(=O)N/N=C/c2ccc(O)c(OCC)c2)ccc1O
- IC50 (Large T antigen): 4.27 µM (active)
- EC50 [6]: 1.2 µM (active)
- EC50 [7]: 11.8 µM (active)

Structure (SMILES): C/C(=N\NC(=O)c1ccc(Cl)c(Cl)c1)c1ccccn1
- EC50 [1]: 0.656 µM (active)
- AC50 (INS1): 0.278 µM (active)
- EC50 (Streptococcus): 1.84 µM (active)
- EC50 (BJ [8]): 0.674 µM (inconclusive)
- EC50 (BJ [9]): 1.37 µM (active)
- EC50 [2]: 0.125 µM (active)
- EC50 [10]: 1.01 µM (active)
- EC50 [11]: 0.099 µM (active)
- EC50 (BJ [12]): 0.38 µM (inconclusive)
- IC50 [13]: 0.563 µM (active)
- IC50 [14]: > 80 µM (inactive)
- IC50 (Nonstructural protein 1): 3.03 µM (active)

Structure (SMILES): CC1=C/C(=N/c2c(C)n(C)n(-c3ccccc3)c2=O)C=CC1=O
- CC50 [15]: > 40 µM (active)
- AC50 [16]: 29.5 µM (active)
- EC50 (Protein RecA): 14 µM (active)

Structure (SMILES): Cc1nn(-c2cccc(Cl)c2)c(O)c1/C=N/n1c(C)nc2ccccc2c1=O
- CC50 [17]: > 20 µM (active)
- CC50 [18]: 28.7 µM (active)
- IC50 (cells): 45.1 µM (active)
